Assay results published in patent US20250134867A1, “METHOD FOR MODULATING LIPID METABOLISM, AMELIORATING NON-ALCOHOLIC FATTY LIVER DISEASE AND METABOLIC SYNDROME BY USING 6-METHOXYBENZOXAZOLINONE” (Taichung District Agricultural Research and Extension …, priority 2023, published 2025).

Key:
Type in all cases: cell-based, human
[1] = system: carnitine palmitoyl-transferase 1 (CPT1); test: Western blot analysis, CPT1 expression in OA-induced HuS-E/2 cells; conditions: CX at 50-400 μM, 0.1 mM OA-induced HuS-E/2 cells
Excerpt: (§1) The procedure regarding Western blot analysis is as follows. For western blot analysis, an equal amount of protein from each sample was resolved by sodium dodecyl sulfate polyacrylamide gel electrophoresis (SDS-PAGE) and then transferred to polyvinylidene fluoride (PVDF) membranes. Primary antibodies against AMPK (Cat. GTX103487), adipose triglyceride lipase (ATGL) (Cat. GTX109941), carnitine palmitoyl-transferase 1 (CPT1) (Cat. GTX114337), and β-actin (Cat. GTX109639) were from GeneTex (Taiwan), and those against pAMPK (Cat. AP0432), phospho acetyl-CoA carboxylase (pACC) (Cat. AP0298), ACC (Cat. A15606), and fatty acid synthase (FAS) (Cat. A21182) was from ABclonal (China). Horseradish peroxidase (HRP)-conjugated secondary antibodies were from Jackson ImmunoResearch Laboratories, Inc., USA. WesternBright® ECL kits (Advansta Inc., USA) were used for protein visualization. Levels of protein expression were quantified by densitometric analyses.

[2] = system: adenosine 5′-monophosphate-activated protein kinase (AMPK); test: Western blot analysis, AMPK phosphorylation in OA-induced HuS-E/2 cells; conditions: CX at 100-400 μM, 0.1 mM OA-induced HuS-E/2 cells
Excerpt: as §1

[3] = system: adipose triglyceride lipase (ATGL); test: Western blot analysis, ATGL expression in OA-induced HuS-E/2 cells; conditions: CX at 50-400 μM, 0.1 mM OA-induced HuS-E/2 cells
Excerpt: as §1

OA-induced HuS-E/2 cells = test: Oil Red O staining of lipid accumulation in oleic acid (OA)-induced cells; conditions: 0.1 mM OA, 18 h
Description: To evaluate the effect of CX on lipid accumulation, HuS-E/2 cells were incubated with or without 0.1 mM OA (Cat. O1383) in the presence or absence of CX for 18 hours. The OA stock solution was 3.15 M in DMSO, and stored at −20° C.
The procedure regarding oil red O staining is as follows. Oil Red O stain (Cat. O0625) were from Sigma-Aldrich, USA. The Oil Red O stain stock solution was 3 mg/mL in isopropanol, and stored at room temperature. For microscopic observation, cells were fixed in 4% paraformaldehyde in phosphate-buffered saline (PBS) for 30 min at room temperature, stained with Oil Red O stain working solution (60% Oil Red O stock solution and 40% distilled water) for 1 h at room temperature, and then rinsed with water. Micrographs were captured under a microscope. For quantitative analysis of cellular lipids, cells were washed three times with ice-cold PBS, fixed with 10% formalin for 1 h, washed, stained with Oil Red O solution for 1 h at room temperature, and washed with water to remove excess dye. Cell-bound Oil Red O stain was dissolved in isopropanol at room temperature for 5 min with shaking. The absorbance at 510 nm was measured in a spectrophotometer. The relative lipid content is calculated by setting the readouts of those receiving vehicles to 0% and those receiving free fatty acids alone to 100%.

[4] = system: fatty acid synthase (FAS); test: Western blot analysis, FAS expression in OA-induced HuS-E/2 cells; conditions: CX at 100-400 μM, 0.1 mM OA-induced HuS-E/2 cells
Excerpt: as §1

[5] = system: acetyl-CoA carboxylase (ACC1); test: Western blot analysis, ACC1 phosphorylation in OA-induced HuS-E/2 cells; conditions: CX at 50-400 μM, 0.1 mM OA-induced HuS-E/2 cells
Excerpt: as §1

For `COc1ccc2[nH]c(=O)oc2c1` [CX, 6-methoxybenzoxazolinone], the CPT1 levels [1] was “elevated CPT1 levels”, the AMPK phosphorylation [2] was “marked increase” and the ATGL expression [3] was “increased ATGL expression substantially”. For the same compound, the “lipid accumulation (micrographs, Oil Red O)” value (OA-induced HuS-E/2 cells; FIG. 2A) was “reduced lipid accumulation in a dose-dependent manner”, the “lipid content (Oil Red O, absorbance 510 nm)” value (OA-induced HuS-E/2 cells; FIG. 2B) was “diminished the lipid content” and the FAS expression [4] was “downregulated FAS expression”. The ACC1 phosphorylation [5] was “increasing ACC1 phosphorylation”.
